In PMC6348381, “Discovery of an MLLT1/3 YEATS Domain Chemical Probe” (Angewandte Chemie (International Ed. in English), 2018):

Columns and labels:
Assay type in all cases: binding
[1] = biological target: T1, BRD2(2) (Homo sapiens, UniProt P25440); assay: Thermal shift assay, BRD2(2)
T1 construct: BRD2(2); purchased in-house (SGC bromodomain thermal shift / AlphaScreen panel)

[2] = biological target: T2, BRD9 (Homo sapiens, UniProt Q9H8M2); assay: Thermal shift assay, BRD9
T2 construct: purchased in-house (SGC bromodomain thermal shift / AlphaScreen panel)
T2 sequence (Q9H8M2 1-597): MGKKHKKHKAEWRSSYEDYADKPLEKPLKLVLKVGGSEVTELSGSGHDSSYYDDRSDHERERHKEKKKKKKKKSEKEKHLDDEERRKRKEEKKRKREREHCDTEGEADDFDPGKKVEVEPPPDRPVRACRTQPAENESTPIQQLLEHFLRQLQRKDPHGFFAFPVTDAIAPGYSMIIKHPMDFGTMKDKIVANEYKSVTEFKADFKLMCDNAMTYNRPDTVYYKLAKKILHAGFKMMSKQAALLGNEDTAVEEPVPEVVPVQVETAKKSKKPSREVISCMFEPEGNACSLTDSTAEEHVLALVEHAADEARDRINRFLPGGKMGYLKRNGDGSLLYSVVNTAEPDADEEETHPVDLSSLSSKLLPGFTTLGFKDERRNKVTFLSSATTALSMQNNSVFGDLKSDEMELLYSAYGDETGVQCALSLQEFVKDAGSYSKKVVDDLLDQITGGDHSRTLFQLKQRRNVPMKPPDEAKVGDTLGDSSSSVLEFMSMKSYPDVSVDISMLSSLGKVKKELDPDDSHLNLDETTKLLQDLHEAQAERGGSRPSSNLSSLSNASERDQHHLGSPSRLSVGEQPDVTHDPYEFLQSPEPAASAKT
Method: (§1) II.VII Thermal Shift Assay[6]
(§2) Thermal melting experiments were carried out using an Mx3005p Real Time PCR machine (Stratagene). Proteins were buffered in 10 mM HEPES pH 7.5, 500 mM NaCl and assayed in a 96-well plate at a final concentration of 2 μM in 20 μL volume. Compounds were added at a final concentration of 50 μM. SYPRO Orange (Molecular Probes) was added as a fluorescence probe at a dilution of 1:1000. Excitation and emission filters for the SYPRO-Orange dye were set to 465 nm and 590 nm, respectively. The temperature was raised with a step of 3 °C per minute from 25 °C to 96 °C and fluorescence readings were taken at each interval. The unfolding curves were fitted using the Boltzmann equation to determine the middle point of the transition.

[3] = biological target: T3, BRD8 (Homo sapiens, UniProt Q9H0E9); assay: Thermal shift assay, BRD8
T3 construct: purchased in-house (SGC bromodomain thermal shift / AlphaScreen panel)
T3 sequence (Q9H0E9 whole entry): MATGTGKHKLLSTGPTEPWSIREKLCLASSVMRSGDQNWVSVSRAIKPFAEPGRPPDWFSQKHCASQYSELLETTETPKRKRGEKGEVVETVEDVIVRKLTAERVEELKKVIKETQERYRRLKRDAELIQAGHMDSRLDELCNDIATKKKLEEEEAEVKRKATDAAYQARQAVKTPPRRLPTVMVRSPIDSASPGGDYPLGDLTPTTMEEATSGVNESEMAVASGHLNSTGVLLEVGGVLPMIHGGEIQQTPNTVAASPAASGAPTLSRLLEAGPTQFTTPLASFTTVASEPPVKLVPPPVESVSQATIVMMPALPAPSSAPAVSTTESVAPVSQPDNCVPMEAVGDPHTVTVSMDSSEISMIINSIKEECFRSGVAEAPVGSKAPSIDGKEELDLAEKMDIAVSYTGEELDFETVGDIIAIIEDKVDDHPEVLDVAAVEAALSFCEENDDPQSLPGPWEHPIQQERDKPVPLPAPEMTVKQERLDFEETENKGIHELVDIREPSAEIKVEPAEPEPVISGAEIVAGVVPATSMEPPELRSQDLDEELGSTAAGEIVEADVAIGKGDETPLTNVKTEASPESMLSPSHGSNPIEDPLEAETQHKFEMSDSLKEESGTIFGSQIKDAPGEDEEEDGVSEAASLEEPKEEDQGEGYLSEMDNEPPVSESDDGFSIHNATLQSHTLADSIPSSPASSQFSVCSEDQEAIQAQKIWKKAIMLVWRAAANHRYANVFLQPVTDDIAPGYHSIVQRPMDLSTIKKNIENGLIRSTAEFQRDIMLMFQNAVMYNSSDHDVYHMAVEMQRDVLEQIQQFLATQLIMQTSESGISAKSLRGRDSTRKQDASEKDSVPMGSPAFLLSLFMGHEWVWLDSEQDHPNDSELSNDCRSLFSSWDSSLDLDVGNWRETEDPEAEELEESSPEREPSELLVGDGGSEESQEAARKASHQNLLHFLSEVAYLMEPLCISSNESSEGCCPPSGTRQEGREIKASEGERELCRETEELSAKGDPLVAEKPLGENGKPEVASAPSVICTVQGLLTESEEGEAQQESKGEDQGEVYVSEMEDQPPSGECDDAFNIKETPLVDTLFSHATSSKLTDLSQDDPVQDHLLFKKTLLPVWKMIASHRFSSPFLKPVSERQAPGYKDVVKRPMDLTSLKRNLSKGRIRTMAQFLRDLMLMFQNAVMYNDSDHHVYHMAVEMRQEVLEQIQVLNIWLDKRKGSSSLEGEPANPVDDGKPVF
Method: as §1, §2

[4] = biological target: T4, PB1(6) (Homo sapiens, UniProt Q86U86); assay: Thermal shift assay, PB1(6)
T4 construct: PB1(6); purchased in-house (SGC bromodomain thermal shift / AlphaScreen panel)
T4 sequence (Q86U86 773-914 limits assumed): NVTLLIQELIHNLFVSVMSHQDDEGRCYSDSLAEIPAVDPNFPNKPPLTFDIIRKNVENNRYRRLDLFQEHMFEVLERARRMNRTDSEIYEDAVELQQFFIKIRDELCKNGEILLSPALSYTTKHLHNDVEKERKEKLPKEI
Method: as §1, §2

[5] = biological target: T5, PCAF (Homo sapiens, UniProt Q92831); assay: Thermal shift assay, PCAF
T5 construct: purchased in-house (SGC bromodomain thermal shift / AlphaScreen panel)
T5 sequence (Q92831 whole entry): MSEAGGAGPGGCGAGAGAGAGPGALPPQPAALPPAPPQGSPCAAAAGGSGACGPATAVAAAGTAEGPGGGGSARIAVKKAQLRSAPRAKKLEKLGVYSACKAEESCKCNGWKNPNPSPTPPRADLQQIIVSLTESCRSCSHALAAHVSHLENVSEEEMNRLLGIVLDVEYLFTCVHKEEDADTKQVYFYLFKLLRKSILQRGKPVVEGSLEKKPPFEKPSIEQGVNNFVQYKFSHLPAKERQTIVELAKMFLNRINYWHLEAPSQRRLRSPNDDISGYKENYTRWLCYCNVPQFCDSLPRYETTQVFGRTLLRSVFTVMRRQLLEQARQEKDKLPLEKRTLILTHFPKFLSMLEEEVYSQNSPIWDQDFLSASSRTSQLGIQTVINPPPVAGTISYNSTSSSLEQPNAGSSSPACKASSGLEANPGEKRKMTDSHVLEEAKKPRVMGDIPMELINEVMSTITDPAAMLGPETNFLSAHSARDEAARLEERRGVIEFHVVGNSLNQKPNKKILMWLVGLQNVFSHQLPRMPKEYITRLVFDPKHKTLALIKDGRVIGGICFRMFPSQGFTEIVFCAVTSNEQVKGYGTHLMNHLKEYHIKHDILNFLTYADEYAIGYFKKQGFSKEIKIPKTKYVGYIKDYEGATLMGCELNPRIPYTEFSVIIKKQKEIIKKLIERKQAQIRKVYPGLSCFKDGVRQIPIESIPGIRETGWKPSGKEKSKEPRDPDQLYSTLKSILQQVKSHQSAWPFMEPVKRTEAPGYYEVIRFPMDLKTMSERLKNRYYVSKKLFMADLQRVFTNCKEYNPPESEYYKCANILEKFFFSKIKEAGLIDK

[6] = biological target: T6, TAF1(1) (Homo sapiens, UniProt P21675); assay: Thermal shift assay, TAF1(1)
T6 construct: TAF1(1); purchased in-house (SGC bromodomain thermal shift / AlphaScreen panel)
T6 sequence (P21675 1397-1505 limits assumed): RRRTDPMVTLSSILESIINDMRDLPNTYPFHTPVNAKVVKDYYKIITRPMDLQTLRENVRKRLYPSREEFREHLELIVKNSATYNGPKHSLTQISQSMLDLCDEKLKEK
Method: as §1, §2

[7] = biological target: T7, TAF1L(2) (Homo sapiens, UniProt Q8IZX4); assay: Thermal shift assay, TAF1L(2)
T7 construct: Bromosporine with recombinant human bromodomain proteins; made in house
T7 sequence (Q8IZX4 1517-1626 limits assumed): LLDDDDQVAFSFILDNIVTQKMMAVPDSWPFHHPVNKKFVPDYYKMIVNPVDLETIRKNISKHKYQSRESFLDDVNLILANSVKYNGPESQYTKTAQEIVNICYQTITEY
Method: as §1, §2

[8] = biological target: T8, TRIM33B (Homo sapiens, UniProt Q9UPN9); assay: Thermal shift assay, TRIM33B
T8 construct: Bromosporine with recombinant human bromodomain proteins; made in house
T8 sequence (Q9UPN9 957-1063 isoform Q9UPN9-2 limits assumed): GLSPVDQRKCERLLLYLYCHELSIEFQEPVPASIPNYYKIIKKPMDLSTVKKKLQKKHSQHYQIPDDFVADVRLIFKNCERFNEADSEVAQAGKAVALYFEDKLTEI
Method: as §1, §2

[9] = biological target: T9, TIF1a (Homo sapiens, UniProt O15164); assay: Thermal shift assay, TIF1a
T9 construct: Bromosporine with recombinant human bromodomain proteins; made in house
T9 sequence (O15164 899-1004 limits assumed): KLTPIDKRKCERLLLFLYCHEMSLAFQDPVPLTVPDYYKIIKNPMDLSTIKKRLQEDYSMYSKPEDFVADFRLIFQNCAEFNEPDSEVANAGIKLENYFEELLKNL
Method: as §1, §2

[10] = biological target: T10, WDR9(2) (Homo sapiens, UniProt Q9NSI6); assay: Thermal shift assay, WDR9(2)
T10 construct: Bromosporine with recombinant human bromodomain proteins; made in house
T10 sequence (Q9NSI6 1313-1418 limits assumed): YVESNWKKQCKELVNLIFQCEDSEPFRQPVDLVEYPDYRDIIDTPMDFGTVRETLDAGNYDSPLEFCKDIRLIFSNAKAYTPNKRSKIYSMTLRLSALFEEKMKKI
Method: as §1, §2

[11] = biological target: CECR2 (Homo sapiens, UniProt Q9BXF3); assay: Thermal shift assay, CECR2; design: purchased in-house (SGC bromodomain thermal shift / AlphaScreen panel)
Chain of CECR2 (Q9BXF3 whole entry): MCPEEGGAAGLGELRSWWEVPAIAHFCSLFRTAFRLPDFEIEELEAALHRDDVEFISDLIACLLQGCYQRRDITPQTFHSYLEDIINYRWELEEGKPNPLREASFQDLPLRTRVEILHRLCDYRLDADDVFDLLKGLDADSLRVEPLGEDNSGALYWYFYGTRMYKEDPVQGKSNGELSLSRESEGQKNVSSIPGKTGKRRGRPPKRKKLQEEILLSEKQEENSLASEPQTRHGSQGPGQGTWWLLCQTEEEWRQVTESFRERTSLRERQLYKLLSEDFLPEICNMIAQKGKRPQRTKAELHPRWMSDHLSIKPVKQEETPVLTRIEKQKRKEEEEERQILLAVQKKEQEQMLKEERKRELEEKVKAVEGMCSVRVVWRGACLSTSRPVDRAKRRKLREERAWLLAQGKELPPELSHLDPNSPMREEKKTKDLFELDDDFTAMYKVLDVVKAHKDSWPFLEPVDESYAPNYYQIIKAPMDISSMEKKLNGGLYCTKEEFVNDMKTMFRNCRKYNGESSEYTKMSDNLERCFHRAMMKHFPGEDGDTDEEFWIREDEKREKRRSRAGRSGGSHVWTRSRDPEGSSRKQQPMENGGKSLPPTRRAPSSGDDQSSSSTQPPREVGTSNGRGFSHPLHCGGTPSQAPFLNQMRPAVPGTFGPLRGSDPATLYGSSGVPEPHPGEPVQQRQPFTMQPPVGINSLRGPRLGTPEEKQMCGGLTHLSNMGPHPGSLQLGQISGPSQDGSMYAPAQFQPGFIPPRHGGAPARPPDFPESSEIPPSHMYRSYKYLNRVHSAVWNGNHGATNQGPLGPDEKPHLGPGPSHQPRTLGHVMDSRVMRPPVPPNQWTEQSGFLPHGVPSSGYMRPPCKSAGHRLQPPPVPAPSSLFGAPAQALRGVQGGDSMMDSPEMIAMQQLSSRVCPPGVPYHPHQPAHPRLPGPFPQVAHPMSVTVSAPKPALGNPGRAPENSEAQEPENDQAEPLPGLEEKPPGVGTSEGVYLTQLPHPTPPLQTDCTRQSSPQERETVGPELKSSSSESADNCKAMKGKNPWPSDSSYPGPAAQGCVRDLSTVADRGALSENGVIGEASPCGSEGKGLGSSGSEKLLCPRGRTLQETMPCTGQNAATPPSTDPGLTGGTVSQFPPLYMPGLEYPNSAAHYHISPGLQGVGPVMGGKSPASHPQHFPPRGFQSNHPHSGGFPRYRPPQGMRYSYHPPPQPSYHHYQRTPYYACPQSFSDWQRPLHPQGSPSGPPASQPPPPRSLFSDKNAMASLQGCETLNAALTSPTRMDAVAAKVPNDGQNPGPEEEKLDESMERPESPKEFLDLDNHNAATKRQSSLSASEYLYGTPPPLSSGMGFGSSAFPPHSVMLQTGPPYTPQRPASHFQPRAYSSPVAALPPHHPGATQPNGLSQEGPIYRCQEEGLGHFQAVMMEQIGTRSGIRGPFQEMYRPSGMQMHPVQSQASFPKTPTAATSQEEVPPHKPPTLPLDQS

T1 sequence (P25440 344-455 limits assumed): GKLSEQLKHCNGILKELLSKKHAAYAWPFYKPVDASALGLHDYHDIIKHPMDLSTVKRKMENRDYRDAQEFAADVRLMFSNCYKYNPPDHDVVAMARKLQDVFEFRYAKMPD

C[C@H]1CCCN1Cc1nc2cc(NC(=O)c3ccc4c(cnn4C)c3)ccc2[nH]1 [Compound 92]
Thermal stabilisation, BRD2(2) ([1]; 50 μM compound): 0.19
Thermal stabilisation, BRD9 ([2]; 50 μM compound): -1.445
Thermal stabilisation, BRD8 ([3]; 50 μM compound): -0.715
Thermal stabilisation, PB1(6) ([4]; 50 μM compound): -0.365
Thermal stabilisation, PCAF ([5]; 50 μM compound): 0.05
Thermal stabilisation, TAF1(1) ([6]; 50 μM compound): -0.15
Thermal stabilisation, TAF1L(2) ([7]; 50 μM compound): -0.48
Thermal stabilisation, TRIM33B ([8]; 50 μM compound): -0.28
Thermal stabilisation, TIF1a ([9]; 50 μM compound): -1.04
Thermal stabilisation, WDR9(2) ([10]; 50 μM compound): -0.775
Thermal stabilisation, CECR2 ([11]; 50 μM compound): 1.205

COC(=O)c1ccc(C(=O)Nc2ccc3[nH]c(CN4CCCCC4)nc3c2)cc1 [Compound 1]
Thermal stabilisation, BRD2(2) ([1]; 50 μM compound): 0.55
Thermal stabilisation, BRD9 ([2]; 50 μM compound): -0.915
Thermal stabilisation, BRD8 ([3]; 50 μM compound): -1.225
Thermal stabilisation, PB1(6) ([4]; 50 μM compound): 0.17
Thermal stabilisation, PCAF ([5]; 50 μM compound): 0.895
Thermal stabilisation, TAF1(1) ([6]; 50 μM compound): 0.005
Thermal stabilisation, TAF1L(2) ([7]; 50 μM compound): -0.065
Thermal stabilisation, TRIM33B ([8]; 50 μM compound): 0.02
Thermal stabilisation, TIF1a ([9]; 50 μM compound): -1.13
Thermal stabilisation, WDR9(2) ([10]; 50 μM compound): -0.18
Thermal stabilisation, CECR2 ([11]; 50 μM compound): 1.28

CCOC(=O)Nc1cc(-c2ccc(C)c(NS(C)(=O)=O)c2)nn2c(C)nnc12 [Bromosporine, reference compound]
Thermal stabilisation, BRD2(2) ([1]; 10 µM compound concentration): 5.8
Thermal stabilisation, BRD9 ([2]; 10 µM compound concentration): 7.145
Thermal stabilisation, BRD8 ([3]; 10 µM compound concentration): 0.74
Thermal stabilisation, PB1(6) ([4]; 10 µM compound concentration): 0.82
Thermal stabilisation, PCAF ([5]; 10 µM compound concentration): 1.025
Thermal stabilisation, TAF1(1) ([6]; 10 µM compound concentration): 0.805
Thermal stabilisation, TAF1L(2) ([7]; 10 µM compound concentration): 4.83
Thermal stabilisation, TRIM33B ([8]; 10 µM compound concentration): 0.03
Thermal stabilisation, TIF1a ([9]; 10 µM compound concentration): 0.16
Thermal stabilisation, WDR9(2) ([10]; 10 µM compound concentration): -1.225
Thermal stabilisation, CECR2 ([11]; 10 µM compound concentration): 11.42
